In patent publication US20040018150A1, “Prodrugs of phosphonate nucleotide analogues and methods for selecting and making same” (priority 2003, published 2004):
Like-named read-outs stand apart in the source and are kept apart here.

What was measured:
[1] = Stability in human plasma; type: in vitro ADME
Protocol: (§1) The in vitro metabolism and stability of separated diastereomers were determined in PLCE, MT-2 extract and human plasma. A biological sample listed below, 80 μL, was transferred into a screw-capped centrifuge tube and incubated at 37° C. for 5 min. A solution containing 0.2 mg/mL of the test compound in a suitable buffer, 20 μL, was added to the biological sample and mixed. The reaction mixture, 20 μL, was immediately sampled and mixed with 60 μL of methanol containing 0.015 mg/mL of 2-hydroxymethylnaphthalene as an internal standard for HPLC analysis. The sample was taken as the time-zero sample. Then, at specific time points, the reaction mixture, 20 μL, was sampled and mixed with 60 μL of methanol containing the internal standard. The mixture thus obtained was centrifuged at 15,000 G for 5 min and the supernatant was analyzed with HPLC under the conditions described below.
(3) Human plasma (pooled normal human plasma from George King Biomedical Systems, Inc.)
In the study for human plasma, the test compound was dissolved in TBS. TBS (tris-buffered saline, Sigma) contains 0.05 M Tris, 0.0027 M potassium chloride, and 0.138 M sodium chloride. pH 7.5 at 37° C.
(§2) The HPLC analysis was carried out under the following conditions.

[2] = Stability / hydrolysis in MT-2 cell extract; type: in vitro ADME
Protocol: as §1
(2) MT-2 cell extract was prepared from MT-2 cells according to the published procedure [A. Pompon, I. Lefebvre, J.-L. Imbach, S. Kahn, and D. Farquhar, “Antiviral Chemistry & Chemotherapy”, 5:91-98 (1994)] except for using HEPES buffer described below as the medium.
In the study for MT-2 cell extracts, the test compound was dissolved in HEPES buffer. HEPES buffer contains 0.010 M HEPES, 0.05 M potassium chloride, 0.005 M magnesium chloride, and 0.005 M dl-dithiothreitol. pH 7.4 at 37° C.
as §2

[3] = system: PLCE (porcine liver carboxyesterase); assay: in vitro; type: in vitro ADME; details: 37° C., PBS pH 7.4
Protocol: as §1
(§3) (1) PLCE (porcine liver carboxyesterase from Sigma, 160 u/mg protein, 21 mg protein/mL) diluted 20 fold with PBS (phosphated-buffered saline).
(§4) In the study for PLCE, the test compound was dissolved in PBS. PBS (phosphate-buffered saline, Sigma) contains 0.01 M phosphate, 0.0027 M potassium chloride, and 0.137 M sodium chloride. pH 7.4 at 37° C.
as §2

[4] = system: porcine liver carboxyesterase (PLCE); assay: in vitro; type: in vitro ADME; details: pig; 37° C., PBS pH 7.4; read-out: PLCE hydrolysis rate t1/2
Protocol: as §1, §3, §4, §2

[5] = Incubation of radiolabeled PMPA prodrugs or PMPA in human whole blood; metabolites in plasma, PBMCs and RBCs; type: in vitro ADME; details: human blood; for Total C-14 Recovered: 1 h incubation, 60 μg-eq; for Metabolites (% of Total Peak Area): GS 7340: 1 h
Protocol: After 1 hour, plasma, red blood cells (RBCs) and peripheral blood mononuclear cells (PBMCs) were isolated and analyzed by HPLC with radiometric detection.

[6] = Excretion and tissue distribution of radiolabelled prodrug in dogs; details: dogs; for % Dose / Conc.: oral 10 mg-eq. PMPA/kg
Protocol: Plasma and peripheral blood mononuclear cells (PBMCs) were obtained over the 24-hr period. Urine and feces were cage collected over 24 hr. At 24 h after the dose, the animals were sacrificed and tissues removed for analysis. Total radioactivity in tissues was determined by oxidation and liquid scintillation counting.

[7] = Cytotoxicity in MT-2 cells; details: human
HIV-1 = assay: microbe, parasite or virus in culture

In the case of `CC(C)OC(=O)[C@H](C)N[P@](=O)(CO[C@H](C)Cn1cnc2c(N)ncnc21)Oc1ccccc1` (single isomer, unassigned) [GS-7340], the “Human Plasma Stability (HP) product” value ([1]; 37° C., TBS pH 7.5) is reported as “Met. Y”, the half-life at 0.04 mg/mL ([1]; pH 7.5, human plasma, read-out: Stability T 1/2 Human Plasma) is reported as 90 min and the “MT-2 extract hydrolysis product” value ([2]; 37° C., HEPES buffer pH 7.4) is reported as “Met. X & PMPA”. The half-life at 0.04 mg/mL ([2]; human, pH 7.4, MT-2 cell extract, read-out: Stability T 1/2 MT-2 Cell Extract) was 28.3 min, the PLCE hydrolysis product [3] was “Met. X & PMPA” and the half-life at 0.04 mg/mL [4] was 3.3 min. For the same molecule, the “Total C-14 Recovered” value ([5]; PBMC) was 1.25 μg-eq, the “Metabolites (% of Total Peak Area): GS 7340” value ([5]; Plasma/FP) was 84% and the “Total C-14 Recovered” value ([5]; Plasma/FP) was 43.0 μg-eq. For the same molecule, the “Metabolites (% of Total Peak Area): GS 7340” value ([5]; RBC/FP) was 57%, the “Total C-14 Recovered” value ([5]; RBC/FP) was 12.6 μg-eq and the “radioactivity in plasma due to intact GS-7340” value ([5]; plasma after 1 hour) was 84%. The “% Dose” value ([6]; Abdominal fat, 24 h) was 0.00%, the Conc. ([6]; Abdominal fat, 24 h) was 0.90 ug-eq/g and the “% Dose” value ([6]; Adrenal Gland, 24 h) was 0.00%. For the same molecule, the Conc. ([6]; Adrenal Gland, 24 h) was 3.47 ug-eq/g, the “% Dose” value ([6]; Axillary Lymph Nodes, 24 h) was 0.01% and the Conc. ([6]; Axillary Lymph Nodes, 24 h) was 5.54 ug-eq/g. The “% Dose” value ([6]; Bile, 24 h) was 0.22%, the Conc. ([6]; Bile, 24 h) was 40.48 ug-eq/g and the “% Dose” value ([6]; Bone Marrow, 24 h) was 0.00%. The Conc. ([6]; Bone Marrow, 24 h) was 2.05 ug-eq/g, the “% Dose” value ([6]; Brain, 24 h) was 0.00% and the Conc. ([6]; Brain, 24 h) was “<LOD”. For the same molecule, the “% Dose” value ([6]; Cerebrospinal Fluid, 24 h) was 0.00%, the Conc. ([6]; Cerebrospinal Fluid, 24 h) was 0.00 ug-eq/g and the “% Dose” value ([6]; Duodenum, 24 h) was 0.44%. The Conc. ([6]; Duodenum, 24 h) was 8.77 ug-eq/g, the “% Dose” value ([6]; Eye (L + R), 24 h) was 0.00% and the Conc. ([6]; Eye (L + R), 24 h) was 0.23 ug-eq/g. The “% Dose” value ([6]; Feces, collected over 24 hr) was 0.19%, the “% Dose” value ([6]; Femoral Bone, 24 h) was 0.00% and the Conc. ([6]; Femoral Bone, 24 h) was 0.28 ug-eq/g. For the same molecule, the “% Dose” value ([6]; Gall bladder, 24 h) was 0.04%, the Conc. ([6]; Gall bladder, 24 h) was 25.02 ug-eq/g and the “% Dose” value ([6]; Heart, 24 h) was 0.15%. For the same molecule, the Conc. ([6]; Heart, 24 h) was 1.97 ug-eq/g, the “% Dose” value ([6]; Ileum, 24 h) was 0.16% and the Conc. ([6]; Ileum, 24 h) was 4.61 ug-eq/g. The “% Dose” value ([6]; Iliac Lymph Nodes, 24 h) was 0.01%, the Conc. ([6]; Iliac Lymph Nodes, 24 h) was 5.42 ug-eq/g and the “% Dose” value ([6]; Inguinal Lymph Nodes, 24 h) was 0.00%. The Conc. ([6]; Inguinal Lymph Nodes, 24 h) was 4.12 ug-eq/g, the “% Dose” value ([6]; Jejunum, 24 h) was 0.79% and the Conc. ([6]; Jejunum, 24 h) was 4.16 ug-eq/g. The “% Dose” value ([6]; Kidney, 24 h) was 3.78%, the Conc. ([6]; Kidney, 24 h) was 80.21 ug-eq/g and the “% Dose” value ([6]; Large Intestine, 24 h) was 2.65%. The Conc. ([6]; Large Intestine, 24 h) was 47.20 ug-eq/g, the “% Dose” value ([6]; Liver, 24 h) was 16.45% and the Conc. ([6]; Liver, 24 h) was 52.94 ug-eq/g. For the same molecule, the “% Dose” value ([6]; Lungs, 24 h) was 0.34%, the Conc. ([6]; Lungs, 24 h) was 4.33 ug-eq/g and the “% Dose” value ([6]; Mesenteric Lymph Nodes, 24 h) was 0.04%. For the same molecule, the Conc. ([6]; Mesenteric Lymph Nodes, 24 h) was 6.88 ug-eq/g, the “% Dose” value ([6]; PBMC) was 0.00% and the Conc. ([6]; PBMC, calculated using typical recovery of 15 × 10^6 cells total, mean PBMC volume 0.2 picoliters/cell) was 63.20 ug-eq/g. The “% Dose” value ([6]; Pancreas, 24 h) was 0.01%, the Conc. ([6]; Pancreas, 24 h) was 3.51 ug-eq/g and the “% Dose” value ([6]; Pituitary Gland, 24 h) was 0.00%. For the same molecule, the Conc. ([6]; Pituitary Gland, 24 h) was 1.80 ug-eq/g, the Conc. ([6]; Plasma at 0.25 h) was 3.48 ug-eq/g and the “% Dose” value ([6]; Plasma at 24 h) was 0.00%. For the same molecule, the Conc. ([6]; Plasma at 24 h) was 0.20 ug-eq/g, the “% Dose” value ([6]; Prostate, 24 h) was 0.00% and the Conc. ([6]; Prostate, 24 h) was 2.14 ug-eq/g. For the same molecule, the “% Dose” value ([6]; Salivary Gland (L + R), 24 h) was 0.03%, the Conc. ([6]; Salivary Gland (L + R), 24 h) was 5.54 ug-eq/g and the “% Dose” value ([6]; Skeletal Muscle, 24 h) was 0.01%. For the same molecule, the Conc. ([6]; Skeletal Muscle, 24 h) was 1.12 ug-eq/g, the “% Dose” value ([6]; Skin, 24 h) was 0.00% and the Conc. ([6]; Skin, 24 h) was 0.95 ug-eq/g. The “% Dose” value ([6]; Spinal Cord, 24 h) was 0.00%, the Conc. ([6]; Spinal Cord, 24 h) was 0.04 ug-eq/g and the “% Dose” value ([6]; Spleen, 24 h) was 0.17%. The Conc. ([6]; Spleen, 24 h) was 8.13 ug-eq/g, the “% Dose” value ([6]; Stomach, 24 h) was 0.26% and the Conc. ([6]; Stomach, 24 h) was 2.68 ug-eq/g. The “% Dose” value ([6]; Testes (L + R), 24 h) was 0.02%, the Conc. ([6]; Testes (L + R), 24 h) was 2.01 ug-eq/g and the “% Dose” value ([6]; Thyroid Gland, 24 h) was 0.00%. For the same molecule, the Conc. ([6]; Thyroid Gland, 24 h) was 4.78 ug-eq/g, the “% Dose” value ([6]; Total GI Tract Contents, 24 h) was 21.64% and the “% Dose” value ([6]; Total Recovery, 24 h) was 68.96%. For the same molecule, the “% Dose” value ([6]; Urine, collected over 24 hr) was 14.73%, the “% Dose” value ([6]; Whole Blood, 24 h) was 0.16% and the Conc. ([6]; Whole Blood, 24 h) was 0.20 ug-eq/g. For the same molecule, the “increase of levels of PMPA in the lymphatic tissues, bone marrow, and skeletal muscle” value ([6]; 24 hours after single oral dose, versus TDF) was 10 fold, the CC50 ([7]; CC50, cell culture) was no less than 40000 nM and the CC50 ([7]; Cytotoxicity CC50, MT-2 cells) was greater than 40000 nM. It also gave an IC50 (HIV-1; Human immunodeficiency virus 1, MT2) of 5 nM, an IC50 (HIV-1; Human immunodeficiency virus 1, MT2, read-out: HIV IC50) of 5 nM and an IC50 (HIV-1; Human immunodeficiency virus 1, MT2, read-out: HIV-1 Activity IC50) of 5 nM.
